Source: patent US20060003920A1, “LAT1 transporters expressed in cancer cells” (Xenoport, Inc., priority 2004, published 2006)

Target: T1, LAT1 and 4F2HC (Homo sapiens, UniProt Q01650)
T1 construct: expressed in transfected cells; host or cells: Xenopus oocytes, injected with in vitro transcribed cRNA
Experiment: 14C-gabapentin uptake into Xenopus oocytes expressing LAT1 and 4F2HC
Type: cell-based
Details: Xenopus oocytes injected with LAT1 and 4F2HC cRNA vs noninjected controls
From the text: To assess transport function of a specific transporter protein, it can be desirable to clone the cDNA and express the protein in cells that have low endogenous transport activity. Human LAT1 was cloned by PCR, fully sequenced, and subcloned into plasmids that can be used for expression in mammalian cells or Xenopus oocytes. The co-subunit required for LAT1 function, 4F2HC (Genbank accession AB018010), was also cloned and sequenced. Unless otherwise noted, 4F2HC was also co-expressed in each heterologous system described in the examples. […] For expression in Xenopus oocytes, in vitro LAT1 and 4F2HC cRNA was prepared and injected into defoliculated oocytes.

T1 sequence (Q01650 whole entry): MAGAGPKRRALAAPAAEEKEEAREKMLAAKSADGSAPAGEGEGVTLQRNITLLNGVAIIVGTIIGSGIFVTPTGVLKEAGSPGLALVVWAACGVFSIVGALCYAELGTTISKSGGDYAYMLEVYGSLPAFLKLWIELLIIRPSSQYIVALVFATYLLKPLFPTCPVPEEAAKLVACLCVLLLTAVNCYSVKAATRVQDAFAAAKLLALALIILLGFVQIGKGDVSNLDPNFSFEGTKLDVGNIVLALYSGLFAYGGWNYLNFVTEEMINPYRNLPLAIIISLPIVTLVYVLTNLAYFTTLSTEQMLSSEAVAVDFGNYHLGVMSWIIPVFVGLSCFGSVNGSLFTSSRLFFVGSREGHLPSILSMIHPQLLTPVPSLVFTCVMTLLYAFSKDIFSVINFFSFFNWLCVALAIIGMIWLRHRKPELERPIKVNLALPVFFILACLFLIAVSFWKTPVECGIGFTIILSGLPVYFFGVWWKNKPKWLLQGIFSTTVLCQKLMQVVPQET
T1 sequence (P08195 102-630 partner): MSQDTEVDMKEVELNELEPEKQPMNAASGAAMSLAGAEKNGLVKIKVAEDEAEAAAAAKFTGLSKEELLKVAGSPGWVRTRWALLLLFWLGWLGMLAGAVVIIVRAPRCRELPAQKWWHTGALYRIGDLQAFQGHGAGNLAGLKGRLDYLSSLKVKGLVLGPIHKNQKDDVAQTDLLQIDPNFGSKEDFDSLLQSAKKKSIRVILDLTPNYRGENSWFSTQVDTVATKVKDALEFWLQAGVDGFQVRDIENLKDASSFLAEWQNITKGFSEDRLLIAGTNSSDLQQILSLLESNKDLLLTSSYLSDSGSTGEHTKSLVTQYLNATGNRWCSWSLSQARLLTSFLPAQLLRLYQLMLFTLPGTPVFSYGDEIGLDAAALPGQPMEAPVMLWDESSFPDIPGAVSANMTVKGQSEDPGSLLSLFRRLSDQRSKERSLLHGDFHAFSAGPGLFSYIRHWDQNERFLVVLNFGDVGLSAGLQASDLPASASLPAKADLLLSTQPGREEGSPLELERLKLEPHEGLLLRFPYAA

SMILES: NCC1(CC(=O)O)CCCCC1 [Gabapentin]
- 14C-gabapentin uptake into oocytes: higher levels of 14C-gabapentin uptake than noninjected controls
